System: Hs700T human pancreatic adenocarcinoma cells
Assay: Subcutaneous model of human pancreatic adenocarcinoma
Type: in vivo, NCR.nu/nu homozygous mice
Details: 5FU 35 mg/kg intraperitoneally, once weekly for 4 treatments
Protocol: This study was designed to test the dose-responsive anti-tumor data for an anti-LUCA2 antibody in a subcutaneous model of pancreatic cancer. Fluorouracil (5FU), a cytotoxic chemotherapy agent, was used as a positive control and tested to see if there was a cumulative effect with mu-anti-LUCA2 and 5FU.
Cultured Hs700T human pancreatic adenocarcinoma cells were trypsinized, washed in media, spun down and resuspended in media at 100 million cells per milliliter of media (5 million cells per 0.05 mL volume), then mixed in an equal volume of Matrigel® for a final injection volume of 0.1 mL. 72 NCR.nu/nu homozygous mice were dosed intraperitoneally during the study. The groups were (1) saline control at 0.2 mL, twice weekly for 10 treatments (2) mu-anti-LUCA2 antibody at 50 mg/kg, twice weekly for 10 treatments, (3) Fluorouracil (5FU) at 35 mg/kg, once weekly for 4 treatments, and (4) mu-anti-LUCA2 antibody at 50 mg/kg and 5FU at 35 mg/kg, twice weekly for 10 treatments.
Tumor growth over time was evaluated to determine anti-tumor activity. Tumors were palpable prior to initiation of therapy. Animals responding to antibody treatment were maintained after treatment cessation to determine time to tumor regrowth.

O=c1[nH]cc(F)c(=O)[nH]1 [5FU, Fluorouracil]
tumor volume inhibition compared to saline control: approximately 21.5%

— patent publication US7847070B2, “LUCA2 and antibodies that bind thereto” (Raven biotechnologies, inc., priority 2005, dated 2010)
